We go through 27 molecules from US20250288571A1 (Nested Therapeutics, Inc., priority 2024, published 2025).

Read-outs that look alike come from different tables or passages of the source.

The test system of one assay is HCT116 cells. The assay can be described thus: HCT116 Cell Titer Glow assay (CTG). The conditions noted are these: Homo sapiens, HCT-116, 72 h; for IC50: read-out: CTG IC50 (nM) Cell Line: HCT116.20. (In general: Cellular ATP, detected with luciferase, serves as a proxy for viable cell number.)
The subject of another assay is IPC298 cells. The assay can be described thus: IPC298 Cell Titer Glow assay (CTG). The conditions noted are these: Homo sapiens, IPC-298, 72 h; for IC50: read-out: CTG IC50 (nM) Cell Line: IPC298.2.
The mark [1] stands for this setting: read-out: CTG % cell viability 1000 uM HCT116.20, HCT116 cells, 72 hours, 1000 uM, percent cells remaining after treatment.
Where [2] appears, read: read-out: CTG % cell viability 100 uM IPC298.2, IPC298 cells, 72 hours, 100 uM, percent cells remaining after treatment.
[3] abbreviates: read-out: CTG % cell viability 1000 uM HCT116.20.
Setting [4] is: read-out: CTG % cell viability 100 uM IPC298.2.

Protocol for IPC298 cells: HCT116 and IPC298 Cell Titer Glow Assay (CTG)
HCT116 cells and IPC298 cells were diluted with culture medium to the desired density 500 cells/well and 40 μL of cell suspension were added into each well of 384-well cell culture plate. […] The plates were covered and stored at room temperature for 30 minutes without shaking and then the plates were transferred into a 37° C. 5% CO2 incubator overnight.
A 10 mM solution in dimethyl sulfoxide (DMSO) was prepared for each test compound. A 3 fold, 10-point dilution was prepared from the stock solution. 40 nl of each solution in 100% DMSO was added to the 384-well plate and diluted to a final 0.1% DMSO final concentration. The plates were then incubated for 72 hours (for both cell lines) at 37° C.
CellTiter-Glo® 2.0 Reagent (Promega, G9242) was removed from the refrigerator and equilibrated at room temperature (23° C.) for 60 minutes. The plates were then removed from the incubator and allowed to equilibrate to room temperature. 30 μL CellTiter-Glo® 2.0 Reagent were added to the assay plates, and spun 1 min/1000 rpm. The plates were allowed to stand for about 20 minutes before being read on Envision using a standard luminescence readout. DMSO was employed as negative control (High control, HC) and 1 uM Staurosporine was employed as positive control (Low control, LC).
The percent (%) inhibition at each concentration of compound was calculated based on the signal in the negative and positive control wells contained within each assay plate.

Usually viability stands for a read-out of living cells in per cent, often relative to untreated cells. In general, IC50 refers to the midpoint of a concentration-inhibition curve. Consider `CNS(=O)(=O)Nc1nccc(Cc2cccc(Nc3ccc(Cl)cc3F)c2C)c1F` [Example 70, 4-[[3-(4-chloro-2-fluoro-anilino)-2-methyl-phenyl]methyl]-3-fluoro-N-(methylsulfamoyl)pyridin-2-amine], for which, in the assay on HCT116 cells (setting [1]), the viability at 1000 µM came out at 50.2%. Moreover, the IC50 in the assay on HCT116 cells was more than 1000 nM; with IPC298 cells, 10 to 100 nM.

As to `CNS(=O)(=O)Nc1nccc(Cc2cncc(Oc3ccc(SC)cc3)c2C)c1F` [Example 71, {[3-fluoro-4-({4-methyl-5-[4-(methylsulfanyl)phenoxy]pyridin-3-yl}methyl)pyridin-2-yl]sulfamoyl}(methyl)amine], the half-inhibitory concentration (IC50) with HCT116 cells and in the assay on IPC298 cells was less than 10 nM each time.

Take `CNS(=O)(=O)Nc1nccc(Cc2cncc(Oc3ccc(S(C)(=O)=O)cc3)c2C)c1F` [Example 72, [(3-fluoro-4-{[5-(4-methanesulfonylphenoxy)-4-methylpyridin-3-yl]methyl}pyridin-2-yl)sulfamoyl](methyl)amine]: the results for the 50% inhibitory concentration (IC50) in the assay on HCT116 cells and with IPC298 cells were 500 to 1000 nM and 10 to 100 nM, respectively.

In the case of `CNS(=O)(=O)Nc1nccc(Cc2cncc(OC3CCC(C)(C)CC3)c2C)c1F` [Example 73, 4-[[5-(4,4-dimethylcyclohexoxy)-4-methyl-3-pyridyl]methyl]-3-fluoro-N-(methylsulfamoyl)pyridin-2-amine], the viability at 1000 µM in the assay on HCT116 cells (setting [1]) was found to be 75.4%. The half-inhibitory concentration (IC50) in the assay with HCT116 cells and in the assay on IPC298 cells was more than 1000 nM each time. For the same molecule, the viability at 100 µM in the assay on IPC298 cells (setting [2]) is 80.8%.

Consider `CC#CCOc1cncc(Cc2ccnc(NS(=O)(=O)NC)c2F)c1C` [Example 75, 4-[(5-but-2-ynoxy-4-methyl-3-pyridyl)methyl]-3-fluoro-N-(methylsulfamoyl)pyridin-2-amine], for which the viability at 1000 µM in the assay on HCT116 cells (setting [1]) worked out at 89.1%. In addition, the IC50 in the assay with HCT116 cells and in the assay with IPC298 cells was more than 1000 nM in each case. Also, the viability at 100 µM in the assay with IPC298 cells (setting [2]) amounted to 87.5%.

With `CNS(=O)(=O)Nc1nccc(Cc2cncc(Oc3ccc(Cl)cc3C)c2C)c1F` [Example 76, 4-[[5-(4-chloro-2-methyl-phenoxy)-4-methyl-3-pyridyl]methyl]-3-fluoro-N-(methylsulfamoyl)pyridin-2-amine], the values for the 50% inhibitory concentration (IC50) in the assay on HCT116 cells and with IPC298 cells were 100 to 500 nM and less than 10 nM, respectively.

On to `CNS(=O)(=O)Nc1nccc(Oc2cncc(Oc3ccc(Cl)cc3)c2C)c1F` [Example 77, 4-[[5-(4-chlorophenoxy)-4-methyl-3-pyridyl]oxy]-3-fluoro-N-(methylsulfamoyl)pyridin-2-amine], for which the values for the IC50 in the assay on HCT116 cells and with IPC298 cells were 100 to 500 nM and less than 10 nM, respectively.

Turning to `CNS(=O)(=O)Nc1nccc(Cc2cncc(Sc3ccc(Cl)cc3)c2C)c1F` [Example 78, {[4-({5-[(4-chlorophenyl)sulfanyl]-4-methylpyridin-3-yl}methyl)-3-fluoropyridin-2-yl]sulfamoyl}(methyl)amine], the results for the half-maximal inhibitory concentration (IC50) in the assay with HCT116 cells and in the assay on IPC298 cells were 100 to 500 nM and less than 10 nM, respectively.

In the case of `CNS(=O)(=O)Nc1nccc(Oc2cncc(Nc3ccc(C)cc3F)c2C)c1F` [Example 79], the IC50 in the assay with HCT116 cells and in the assay on IPC298 cells was less than 10 nM in each case.

`CCc1ccc(Nc2cncc(Oc3ccnc(NS(=O)(=O)NC)c3F)c2C)c(F)c1` [Example 80, N-(4-ethyl-2-fluorophenyl)-5-({3-fluoro-2-[(methylsulfamoyl)amino]pyridin-4-yl}oxy)-4-methylpyridin-3-amine]: the half-inhibitory concentration (IC50) in the assay with HCT116 cells and with IPC298 cells was less than 10 nM throughout.

As for `CCNS(=O)(=O)Nc1nccc(Cc2cncc(Oc3ccc(Cl)cc3F)c2C)c1F` [Example 81, 4-[[5-(4-chloro-2-fluoro-phenoxy)-4-methyl-3-pyridyl]methyl]-N-(ethylsulfamoyl)-3-fluoro-pyridin-2-amine], the concentration for half-maximal inhibition (IC50) in the assay with HCT116 cells was 100 to 500 nM; with IPC298 cells, less than 10 nM.

Regarding `CNS(=O)(=O)Nc1nccc(Cc2cncc(OCc3ccc(Cl)cc3)c2C)c1F` [Example 82, 4-[[5-[(4-chlorophenyl)methoxy]-4-methyl-3-pyridyl]methyl]-3-fluoro-N-(methylsulfamoyl)pyridin-2-amine], the viability at 1000 µM with HCT116 cells (setting [1]) came to 93%. Besides, the IC50 in the assay with HCT116 cells and in the assay on IPC298 cells was more than 1000 nM in each case. For the same molecule, the viability at 100 µM in the assay with IPC298 cells (setting [2]) stood at 56%.

As to `CCc1c(Cc2ccnc(NS(=O)(=O)NC)c2F)cncc1Oc1ccc(Cl)cc1` [Example 83, 4-[[5-(4-chlorophenoxy)-4-ethyl-3-pyridyl]methyl]-3-fluoro-N-(methylsulfamoyl)pyridin-2-amine], the IC50 is 10 to 100 nM in the assay with HCT116 cells and less than 10 nM in the assay with IPC298 cells.

With `CNS(=O)(=O)Nc1nccc(Oc2cncc(Oc3ccc(C)cc3Cl)c2C)c1F` [Example 84, 4-[[5-(2-chloro-4-methyl-phenoxy)-4-methyl-3-pyridyl]oxy]-3-fluoro-N-(methylsulfamoyl)pyridin-2-amine], the half-maximal inhibitory concentration (IC50) in the assay on HCT116 cells was 500 to 1000 nM; in the assay on IPC298 cells, less than 10 nM.

Turning to `CNS(=O)(=O)Nc1nccc(Cc2cncc(NC3CC4(C3)CN(C)C4)c2C)c1F` [Example 85, N-[5-[[3-fluoro-2-(methylsulfamoylamino)-4-pyridyl]methyl]-4-methyl-3-pyridyl]-2-methyl-2-azaspiro[3.3]heptan-6-amine], the viability at 1000 µM with HCT116 cells (setting [3]) was determined as 102%. The 50% inhibitory concentration (IC50) in the assay with HCT116 cells and with IPC298 cells was more than 1000 nM each time. For the same molecule, in the assay on IPC298 cells (setting [4]), the viability at 100 µM was found to be 106%.

In the case of `CNS(=O)(=O)Nc1nccc(Cc2cncc(OCc3cccc(Cl)c3)c2C)c1F` [Example 86, 4-[[5-[(3-chlorophenyl)methoxy]-4-methyl-3-pyridyl]methyl]-3-fluoro-N-(methylsulfamoyl)pyridin-2-amine], the IC50 in the assay with HCT116 cells lay in the range of 100 to 500 nM; with IPC298 cells, 10 to 100 nM.

As for `CNS(=O)(=O)Nc1nccc(Cc2cccc3c2CCCN3c2ccc(Cl)cc2F)c1F` [Example 87, 4-[[1-(4-chloro-2-fluoro-phenyl)-3,4-dihydro-2H-quinolin-5-yl]methyl]-3-fluoro-N-(methylsulfamoyl)pyridin-2-amine], the viability at 1000 µM in the assay on HCT116 cells (setting [1]) stood at 95%. The IC50 in the assay on HCT116 cells and in the assay with IPC298 cells was more than 1000 nM throughout. The viability at 100 µM with IPC298 cells (setting [2]) was 101%.

`CNS(=O)(=O)Nc1nccc(Cc2cncc(Nc3ccc(CC(C)C)cc3F)c2C)c1F` [Example 88, 3-fluoro-4-[[5-(2-fluoro-4-isobutyl-anilino)-4-methyl-3-pyridyl]methyl]-N-(methylsulfamoyl)pyridin-2-amine]: the half-maximal inhibitory concentration (IC50) was 100 to 500 nM with HCT116 cells and less than 10 nM in the assay on IPC298 cells.

`CNS(=O)(=O)Nc1nccc(Cc2cncc(Oc3ncc(C)s3)c2C)c1F` [Example 89, 3-fluoro-4-[[4-methyl-5-(5-methylthiazol-2-yl)oxy-3-pyridyl]methyl]-N-(methylsulfamoyl)pyridin-2-amine]: the viability at 1000 µM in the assay with HCT116 cells (setting [1]) was found to be 95%. Further, the IC50 in the assay on HCT116 cells and in the assay with IPC298 cells was more than 1000 nM in each case. The viability at 100 µM in the assay with IPC298 cells (setting [2]) was 100%.

Take `Cc1c(Cc2ccnc(NS(=O)(=O)NC(C)C)c2F)cncc1Oc1ccc(Cl)cc1F` [Example 90, 4-[[5-(4-chloro-2-fluoro-phenoxy)-4-methyl-3-pyridyl]methyl]-3-fluoro-N-(isopropylsulfamoyl)pyridin-2-amine]: the viability at 1000 µM in the assay with HCT116 cells (setting [1]) was found to be 59.5%. Further, the IC50 in the assay on HCT116 cells was more than 1000 nM; in the assay with IPC298 cells, 10 to 100 nM.

On to `CNS(=O)(=O)Nc1nccc(Cc2cncc(Oc3ccc(C)cc3F)c2C)c1OC` [Example 91, 4-[[5-(2-fluoro-4-methyl-phenoxy)-4-methyl-3-pyridyl]methyl]-3-methoxy-N-(methylsulfamoyl)pyridin-2-amine], for which the concentration for half-maximal inhibition (IC50) in the assay with HCT116 cells was 10 to 100 nM; with IPC298 cells it was less than 10 nM.

For `CNS(=O)(=O)Nc1nccc(Cc2cncc(OC3CC4(C3)CN(C)C4)c2C)c1F` [Example 92, 3-fluoro-4-[[4-methyl-5-[(2-methyl-2-azaspiro[3.3]heptan-6-yl)oxy]-3-pyridyl]methyl]-N-(methylsulfamoyl)pyridin-2-amine], the viability at 1000 µM in the assay on HCT116 cells (setting [3]) was 103%. The half-maximal inhibitory concentration (IC50) with HCT116 cells and in the assay with IPC298 cells was more than 1000 nM each time. In addition, in the assay on IPC298 cells (setting [4]), the viability at 100 µM was 101%.

Consider `CNS(=O)(=O)Nc1nccc(Cc2cncc(Oc3ccc(Cl)cc3F)c2C)c1OC` [Example 93, 4-[[5-(4-chloro-2-fluoro-phenoxy)-4-methyl-3-pyridyl]methyl]-3-methoxy-N-(methylsulfamoyl)pyridin-2-amine], for which the IC50 in the assay on HCT116 cells is 10 to 100 nM; in the assay with IPC298 cells it was less than 10 nM.

Take `CNS(=O)(=O)Nc1nccc(Cc2cncc(Oc3ccc(OC)cc3F)c2C)c1F` [Example 94, 3-fluoro-4-[[5-(2-fluoro-4-methoxy-phenoxy)-4-methyl-3-pyridyl]methyl]-N-(methylsulfamoyl)pyridin-2-amine]: the IC50 in the assay with HCT116 cells was 100 to 500 nM; with IPC298 cells, less than 10 nM.

With `CCNS(=O)(=O)Nc1nccc(Cc2cncc(Nc3ccc(C)cc3F)c2C)c1F` [Example 95, N-(ethylsulfamoyl)-3-fluoro-4-[[5-(2-fluoro-4-methyl-anilino)-4-methyl-3-pyridyl]methyl]pyridin-2-amine], the figures for the IC50 with HCT116 cells and with IPC298 cells were 10 to 100 nM and less than 10 nM, respectively.

Turning to `Cc1ccc(Nc2cncc(Cc3ccnc(NS(N)(=O)=O)c3F)c2C)c(F)c1` [Example 96, 3-fluoro-4-[[5-(2-fluoro-4-methyl-anilino)-4-methyl-3-pyridyl]methyl]-2-(sulfamoylamino)pyridine], the IC50 in the assay on HCT116 cells is 10 to 100 nM; with IPC298 cells it was less than 10 nM.

As for `CNS(=O)(=O)Nc1nccc(Oc2cncc(Nc3ccc(C4CC4)cc3F)c2C)c1F` [Example 97, 4-[[5-(4-cyclopropyl-2-fluoro-anilino)-4-methyl-3-pyridyl]oxy]-3-fluoro-N-(methylsulfamoyl)pyridin-2-amine], the IC50 with HCT116 cells and in the assay with IPC298 cells was less than 10 nM in each case.
